Data from the SangsterLogP compilation.

Assay: method code SF-AS, from DOI: 10.1002/zfch.19790190911

logP	SMILES
-1.44	Nc1nnco1
0.73	CCCCCCCc1nnc(N)o1
-0.92	Cc1nnc(N)o1
0.48	CC(C)(C)c1nnc(N)o1
-1	CCC(=O)NN
0.65	CCCCc1nnc(N)o1
1.19	Nc1nnc(CCc2ccccc2)o1
-0.3	CCc1nnc(N)o1
1.43	CCCCCCc1nnc(N)o1
0.2	CC(C)c1nnc(N)o1
0.95	Nc1nnc(Cc2ccccc2)o1
0.23	CCCc1nnc(N)o1
1.1	CCCCCc1nnc(N)o1
0.62	CCC(C)c1nnc(N)o1 (stereo not drawn)
0.4	CC(C)Cc1nnc(N)o1

The next lines start with the molecule.

SMILES	logP
CCCCCCCCCC(=O)NN	0.03
CC(C)CC(=O)NN	-0.31
CC(C)C(=O)NN	-0.63
CC(=O)NN	-1.58
CCC(C)C(=O)NN (stereo not drawn)	-0.33
CCCCCCC(=O)NN	0.97
CCCCCC(=O)NN	0.48
CC(C)(C)C(=O)NN	-0.35
CCCCC(=O)NN	-0.11
NNC=O	-2.05
CCCCCCCC(=O)NN	1
CCCC(=O)NN	-0.62
CCCCCCCCC(=O)NN	0.5
